According to US12728186B2, “Methods and kits for preparing pathogen-inactivated whole blood” (priority 2018, dated 2026):
Where “and” joins values, the source holds several entries; their conditions need not be identical. Identical values can stand only once.

Experiment: Residual amustaline, Example 8 (2-container processing before component preparation)
Type: physicochemical
Details: Units 2-7
Method: Additionally, a study was performed to evaluate plasma and red blood cells prepared from a pathogen-inactivated whole blood composition, either shortly after the whole blood PI treatment process, or after storing the pathogen-inactivated whole blood at 4° C. prior to preparing the plasma and red blood cell components. Donor whole blood units were pooled and split into seven units (e.g., to standardize across units), and subjected to treatment conditions as follows. Unit 1 was the control and treated only with saline, while units 2-7 were treated with amustaline and GSH, at concentrations of about 0.2 mM and 2.0 mM, respectively. Following addition of the amustaline and GSH, or the saline, in the first container (bag), the units were incubated at 22° C. for 22 hours, and then transferred to the second container (bag). Sampling was done at the time of transfer, and also at 24 hours and 26 hours (2 or 4 hours post-transfer, also incubated at 22° C.), for analysis of residual amustaline, hemolysis and/or fibrinogen and Factor VIII levels. […] Additionally, at Days 2, 5 and 7, samples were removed from the stored pathogen-inactivated whole blood, centrifuged to obtain plasma and red blood cells, and similarly analyzed. […]

Structure (SMILES): O=C(CCNc1c2ccccc2nc2ccccc12)OCCN(CCCl)CCCl [amustaline]
- Residual amustaline levels in pathogen-inactivated whole blood, 22 hr (22 hr (time of transfer), first container 22° C. for 22 hours, then second container): 1.46 nM and 1.39 nM and 1.35 nM and 1.96 nM and 1.84 nM and 1.55 nM
- Residual amustaline levels in pathogen-inactivated whole blood, 26 hr (26 hr (4 hours post-transfer, 22° C.), second container from 22 hr): BLOQ (BLOQ = Below Limit of Quantitation (e.g., < 0.75 nM))
